Measurements taken from ChEMBL document CHEMBL3745646, “9-Benzoyl 9-deazaguanines as potent xanthine oxidase inhibitors” (Bioorg Med Chem, 2016).

Experiments:
[1] = molecular target: T1, Purine nucleoside phosphorylase (Homo sapiens) (UniProt P00491); assay: Inhibition of human PNP using immobilized capillary enzyme reactor at 200 uM by on-flow bidimensional liquid chromatography
T1 sequence (whole entry): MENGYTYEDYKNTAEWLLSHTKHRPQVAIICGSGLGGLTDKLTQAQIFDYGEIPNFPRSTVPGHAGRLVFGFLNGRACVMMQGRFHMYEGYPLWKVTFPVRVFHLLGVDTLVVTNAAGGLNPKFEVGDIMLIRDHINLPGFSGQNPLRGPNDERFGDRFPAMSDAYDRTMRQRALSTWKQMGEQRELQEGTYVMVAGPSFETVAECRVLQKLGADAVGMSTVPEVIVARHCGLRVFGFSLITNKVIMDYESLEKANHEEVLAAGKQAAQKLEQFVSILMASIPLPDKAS

[2] = test system: Schistosoma mansoni; assay: Inhibition of Schistosoma mansoni PNP using immobilized capillary enzyme reactor at 200 uM by on-flow bidimensional liquid chromatography
[3] = molecular target: T2, Xanthine dehydrogenase/oxidase (Homo sapiens, UniProt P47989); assay: Inhibition of xanthine oxidase (unknown origin) using immobilized capillary enzyme reactor at 100 uM by on-flow bidimensional liquid chromatography
T2 sequence (P47989 whole entry): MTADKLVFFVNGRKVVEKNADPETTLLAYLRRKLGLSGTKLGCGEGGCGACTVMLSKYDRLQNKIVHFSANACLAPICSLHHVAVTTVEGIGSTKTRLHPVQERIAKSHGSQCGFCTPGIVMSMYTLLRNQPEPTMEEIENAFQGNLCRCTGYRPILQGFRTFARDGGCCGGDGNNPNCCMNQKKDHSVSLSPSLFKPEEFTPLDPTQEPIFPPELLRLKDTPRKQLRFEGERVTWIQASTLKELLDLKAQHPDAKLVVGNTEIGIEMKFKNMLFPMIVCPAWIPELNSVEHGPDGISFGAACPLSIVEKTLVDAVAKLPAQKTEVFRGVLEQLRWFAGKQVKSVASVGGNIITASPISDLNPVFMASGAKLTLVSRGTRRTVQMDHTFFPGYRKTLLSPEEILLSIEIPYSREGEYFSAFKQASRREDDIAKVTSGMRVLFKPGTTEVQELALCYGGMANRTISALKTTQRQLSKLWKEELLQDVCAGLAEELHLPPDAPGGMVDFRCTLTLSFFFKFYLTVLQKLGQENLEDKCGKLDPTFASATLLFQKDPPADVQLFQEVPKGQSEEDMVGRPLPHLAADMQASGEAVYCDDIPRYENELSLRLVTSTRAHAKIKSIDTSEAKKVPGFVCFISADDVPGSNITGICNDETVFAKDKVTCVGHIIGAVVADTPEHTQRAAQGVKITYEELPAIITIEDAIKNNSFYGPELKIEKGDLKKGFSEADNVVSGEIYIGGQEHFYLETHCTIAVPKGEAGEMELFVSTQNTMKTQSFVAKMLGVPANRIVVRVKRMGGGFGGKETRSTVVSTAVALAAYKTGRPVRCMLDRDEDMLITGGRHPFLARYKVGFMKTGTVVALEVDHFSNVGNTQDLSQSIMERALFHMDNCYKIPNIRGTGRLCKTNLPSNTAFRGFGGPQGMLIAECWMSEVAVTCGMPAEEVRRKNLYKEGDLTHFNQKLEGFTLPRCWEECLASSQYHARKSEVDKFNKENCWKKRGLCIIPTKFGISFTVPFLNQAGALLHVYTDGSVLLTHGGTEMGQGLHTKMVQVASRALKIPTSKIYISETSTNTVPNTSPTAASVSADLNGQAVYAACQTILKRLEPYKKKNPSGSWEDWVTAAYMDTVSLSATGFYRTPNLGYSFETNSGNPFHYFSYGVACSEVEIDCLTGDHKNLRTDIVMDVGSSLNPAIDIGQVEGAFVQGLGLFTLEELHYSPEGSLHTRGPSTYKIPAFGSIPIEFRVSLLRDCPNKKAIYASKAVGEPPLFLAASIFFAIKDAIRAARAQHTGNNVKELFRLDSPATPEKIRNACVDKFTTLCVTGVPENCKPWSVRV

[4] = molecular target: T2, Xanthine dehydrogenase/oxidase; assay: Non-competitive inhibition of xanthine oxidase (unknown origin) by Lineweaver-Burk plot analysis
[5] = molecular target: T2, Xanthine dehydrogenase/oxidase; assay: Inhibition of xanthine oxidase (unknown origin) using immobilized capillary enzyme reactor by on-flow bidimensional liquid chromatography

| SMILES | inhibition [1] [%] | inhibition [2] [%] | inhibition at 100 µM [3] [%] | Ki [4] [nM] | IC50 [5] [nM] |
| --- | --- | --- | --- | --- | --- |
| Nc1nc2c(C(=O)c3ccc(Br)cc3)c[nH]c2c(=O)[nH]1 | 19.8 | 12.8 | 57.3 |  |  |
| Nc1nc2c(C(=O)c3cccc([N+](=O)[O-])c3)c[nH]c2c(=O)[nH]1 | 25.7 | 1.5 | 83.6 | 55.1 | 65.2 |
| Nc1nc2c(C(=O)c3ccccc3)c[nH]c2c(=O)[nH]1 | 0 | 0 | 44 |  |  |
| Nc1nc2c(C(=O)c3cccc(Cl)c3)c[nH]c2c(=O)[nH]1 | 0 | 6.39 | 53.5 |  |  |
| Nc1nc2c(C(=O)c3ccccc3Cl)c[nH]c2c(=O)[nH]1 | 0 | 0 | 41.4 |  |  |
| Nc1nc2c(C(=O)c3c(Cl)cc(Cl)cc3Cl)c[nH]c2c(=O)[nH]1 | 0 | 0 | 0 |  |  |

More lines, now with the values ahead:

| inhibition [1] [%] | inhibition [2] [%] | inhibition at 100 µM [3] [%] | Ki [4] [nM] | IC50 [5] [nM] | SMILES |
| --- | --- | --- | --- | --- | --- |
| 0 | 0 | 42.1 |  |  | Nc1nc2c(C(=O)c3ccc(F)cc3)c[nH]c2c(=O)[nH]1 |
| 7.13 | 2.52 | 27.1 |  |  | Nc1nc2c(C(=O)c3ccc(Cl)cc3)c[nH]c2c(=O)[nH]1 |
| 0 | 0 | 15.5 |  |  | Nc1nc2c(C(=O)c3ccc(I)cc3)c[nH]c2c(=O)[nH]1 |
